The values below come from publication PMC12022153, “Sustainable approach for synthesis of new coumarin-linked Schiff bases in DABCO-based ionic liquid and their identification as aldose reductase inhibitors” (Scientific Reports, 2025).

Usually inhibition stands for the change of the read-out against control, counted positive when it falls.

Experiment [1] concerns the target T1, aldehyde reductase (ALR1) (Bos taurus, UniProt Q3ZCJ2).
T1 construct: ALR2 was extracted from the eyes while ALR1 was obtained from the kidneys; from tissue; host or cells: bovine kidneys
The experiment can be described thus: Enzyme inhibition assay for ALR1 (aldehyde reductase), NADPH absorbance at 340 nm. In kind it is biochemical, bovine. The following applies: for inhibition at 100 µM: less than 50% so no IC50; for IC50: substrate sodium-D-glucuronate, NADPH, standard valproic acid, value ± SEM. On the procedure:
(§1) The ALR2 activity was estimated through measuring decrease in absorbance of NADPH in the assay at 340 nm on a spectrophotometer (FLUOstar Omega BMG LABTECH, Germany). The enzyme inhibition assay was carried out via following methods of ALR2 inhibition of our recent study. During the assay, total assay volume was kept 100 consisting of 20 µL of 100 mM sodium phosphate buffer at pH 6.2, 30 µL of the enzyme ([…]; protein concentration 12 µg mL^−1), 10 µL of test compound, and 20 µL of 1 mM substrate DL-glyceraldehyde. First, the reaction mixture was incubated without co-factor (NADPH) then reaction was initiated by addition of 20 µL of NADPH solution of 0.1 mM and monitored for five minutes. The change of absorbance was noted as pre-read and after-read, the percent inhibition was calculated for the tested compounds and standard inhibitor. For ALR1 (aldehyde reductase), sodium-D-glucuronate was employed as a substrate and valproic acid as a standard inhibitor. […] Otherwise, identical protocols were adopted for the ALR1 and ALR2 assays. First, tests compounds were solubilized in dimethyl sulfoxide (DMSO) (100%) and dilutions were prepared with deionized water to keep the concentration of DMSO at 0.1% during the assay. Initially, test compounds were tested at 100 µM. […] The logarithms of the inhibitor concentration were plotted versus the remaining activity of the enzyme, and IC50 values were calculated using non-linear regression analysis in GraphPad Prism Version 8.
(§2) Based on these reports, a library of coumarin-linked Schiff base analogues were designed. […] Compounds were also checked for selectivity via testing their inhibitory potency against ALR1 enzyme. Both aldose reductase enzymes (ALR2 and ALR1) were isolated from bovine; ALR2 was extracted from the eyes while ALR1 was obtained from the kidneys.

Experiment [2] addresses T2, aldose reductase (ALR2) (Bos taurus, UniProt P16116).
T2 construct: ALR2 was extracted from the eyes while ALR1 was obtained from the kidneys; from tissue; host or cells: bovine eyes
The experiment can be described thus: Enzyme inhibition assay for ALR2 (aldose reductase), NADPH absorbance at 340 nm. Type of experiment: biochemical, bovine. The following applies: for selectivity of inhibition, ALR2 versus ALR1: comparison of inhibitory activity against both enzymes; for IC50: read-out: IC50 ± SEM ALR2 Inhibition; for inhibition at 100 µM: less than 50% so no IC50. How it is done:
as §1, §2

In experiment [3] the test system is aldose reductase (ALR2). As to conditions: cited from earlier work.
[4] abbreviates: test compounds tested at 100 µM, read-out: % Inhibition ALR1.
The mark [5] stands for this setting: test compounds tested at 100 µM, read-out: % Inhibition ALR2.

SMILES strings stand for the structures. Read-outs that look alike come from different tables or passages of the source.

T1 sequence (Q3ZCJ2 whole entry): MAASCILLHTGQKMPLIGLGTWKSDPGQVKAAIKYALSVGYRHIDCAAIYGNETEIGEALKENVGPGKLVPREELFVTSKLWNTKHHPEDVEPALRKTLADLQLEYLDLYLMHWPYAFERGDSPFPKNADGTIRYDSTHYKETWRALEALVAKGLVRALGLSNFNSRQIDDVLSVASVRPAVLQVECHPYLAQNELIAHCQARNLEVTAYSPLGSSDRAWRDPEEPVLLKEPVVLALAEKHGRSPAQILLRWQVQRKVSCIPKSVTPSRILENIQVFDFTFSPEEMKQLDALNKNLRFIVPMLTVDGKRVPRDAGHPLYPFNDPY

As for `O=c1oc2ccccc2cc1COc1ccccc1C=NNc1ccccc1` [Compound 5, 3-((2′-((2-Phenylhydrazineylidene)methyl)phenoxy)methyl)-2H-chromen-2-one], in experiment [1] (setting [4]), the inhibition at 100 µM stood at 45.1%. In addition, at aldose reductase (ALR2) [2], the “selectivity of inhibition, ALR2 versus ALR1” value (“selectivity of inhibition” for short) is recorded as “selective inhibition against ALR2 enzyme” and the IC50 was determined as 11.2 ± 0.029 µM.
In the same order, the values of `O=c1oc2ccccc2cc1COc1ccccc1C=NNc1ccc(F)cc1` [Compound 6, 3-((2′-((2-(4′′-Fluorophenyl)hydrazineylidene)methyl)phenoxy)methyl)-2H-chromen-2-one] are 45.2%, “selective inhibition against ALR2 enzyme” and 2.2 ± 0.024 µM.
With `O=c1oc2ccccc2cc1COc1ccccc1C=NNc1ccccc1Cl` [Compound 7, 3-((2′-((2-(2′′-Chlorophenyl)hydrazineylidene)methyl)phenoxy)methyl)-2H-chromen-2-one], the IC50 in experiment [1] turned out to be 14.49 ± 0.052 µM; on aldose reductase (ALR2) [2] it was 3.61 ± 0.016 µM.
Taken in the same sequence, the figures for `O=c1oc2ccccc2cc1COc1ccccc1C=NNc1cccc(Cl)c1` [Compound 8, 3-((2′-((2-(3′′-Chlorophenyl)hydrazineylidene)methyl)phenoxy)methyl)-2H-chromen-2-one] were 5.96 ± 0.035 µM and 2.94 ± 0.083 µM.
In the same order, the values of `O=c1oc2ccccc2cc1COc1ccccc1C=NNc1ccc(Cl)cc1` [Compound 9, 3-((2′-((2-(4′′-Chlorophenyl)hydrazineylidene)methyl)phenoxy)methyl)-2H-chromen-2-one] are 4.07 ± 0.078 µM and 2.84 ± 0.032 µM.
With `O=c1oc2ccccc2cc1COc1ccccc1C=NNc1ccccc1Br` [Compound 10, 3-((2′-((2-(2′′-Bromophenyl)hydrazineylidene)methyl)phenoxy)methyl)-2H-chromen-2-one], the inhibition at 100 µM (in experiment [1] (setting [4]); at aldose reductase (ALR2) [2] (setting [5])) was less than 50% in each case.
Turning to `O=c1oc2ccccc2cc1COc1ccccc1C=NNc1ccc(Br)cc1` [Compound 11, 3-((2′-((2-(4′′-Bromophenyl)hydrazineylidene)methyl)phenoxy)methyl)-2H-chromen-2-one], the inhibition at 100 µM (in experiment [1] (setting [4]); at aldose reductase (ALR2) [2] (setting [5])) was less than 50% each time.
Turning to `Cc1ccccc1NN=Cc1ccccc1OCc1cc2ccccc2oc1=O` [Compound 12, 3-((2′-((2-(o-Tolyl)hydrazineylidene)methyl)phenoxy)methyl)-2H-chromen-2-one], the inhibition at 100 µM in experiment [1] (setting [4]) was determined as 37.9%. At aldose reductase (ALR2) [2], the “selectivity of inhibition” value is “selective inhibition against ALR2 enzyme” and the IC50 amounted to 3.66 ± 0.068 µM.
In the same order, the values of `Cc1ccc(NN=Cc2ccccc2OCc2cc3ccccc3oc2=O)cc1` [Compound 13, 3-((2′-((2-(p-Tolyl)hydrazineylidene)methyl)phenoxy)methyl)-2H-chromen-2-one] are 34.2%, “selective inhibition against ALR2 enzyme” and 4.64 ± 0.045 µM.
`CCc1ccccc1NN=Cc1ccccc1OCc1cc2ccccc2oc1=O` [Compound 14, 3-((2′-((2-(2′′-Ethylphenyl)hydrazineylidene)methyl)phenoxy)methyl)-2H-chromen-2-one] came in with an IC50 in experiment [1] of 12.9 ± 0.013 µM. Besides, on aldose reductase (ALR2) [2], the “selectivity of inhibition” value is recorded as “non-selective inhibitions” and the IC50 is 6.52 ± 0.077 µM.
With `COc1ccc(NN=Cc2ccccc2OCc2cc3ccccc3oc2=O)cc1` [Compound 15, 3-((2′-((2-(4′′-Methoxyphenyl)hydrazineylidene)methyl)phenoxy)methyl)-2H-chromen-2-one], in experiment [1], the IC50 worked out at 4.21 ± 0.023 µM. Besides, at aldose reductase (ALR2) [2], the “selectivity of inhibition” value was “non-selective inhibitions” and the IC50 amounted to 10.19 ± 0.034 µM.
For the molecule `N#Cc1ccc(NN=Cc2ccccc2OCc2cc3ccccc3oc2=O)cc1` [Compound 16, 4′′-(2-(2′-((2-Oxo-2H-chromen-3-yl)methoxy)benzylidene)hydrazineyl)benzonitrile], the values for the inhibition at 100 µM (in experiment [1] (setting [4]); on aldose reductase (ALR2) [2] (setting [5])) were 42.9% and 39.2%, respectively.
`O=c1oc2ccccc2cc1COc1ccccc1C=NNc1ccccc1[N+](=O)[O-]` [Compound 17, 3-((2′-((2-(2′′-Nitrophenyl)hydrazineylidene)methyl)phenoxy)methyl)-2H-chromen-2-one]: the inhibition at 100 µM in experiment [1] (setting [4]) was found to be 33.2%; at aldose reductase (ALR2) [2] (setting [5]), 45.6%.
Taken in the same sequence, the figures for `O=c1oc2ccccc2cc1COc1ccccc1C=NNc1cccc([N+](=O)[O-])c1` [Compound 18, 3-((2′-((2-(3′′-Nitrophenyl)hydrazineylidene)methyl)phenoxy)methyl)-2H-chromen-2-one] were 35.7% and 42.9%.
Consider `Cc1cccc(NN=Cc2ccccc2OCc2cc3ccccc3oc2=O)c1C` [Compound 19, 3-((2′-((2-(2′′,3′′-Dimethylphenyl)hydrazineylidene)methyl)phenoxy)methyl)-2H-chromen-2-one], for which the inhibition at 100 µM in experiment [1] (setting [4]) worked out at 37%. For the same molecule, at aldose reductase (ALR2) [2], the “selectivity of inhibition” value is “selective inhibition against ALR2 enzyme” and the IC50 was found to be 1.61 ± 0.049 µM.
With `Cc1ccc(NN=Cc2ccccc2OCc2cc3ccccc3oc2=O)c(C)c1` [Compound 20, 3-((2′-((2-(2′′,4′′-Dimethylphenyl)hydrazineylidene)methyl)phenoxy)methyl)-2H-chromen-2-one], the IC50 in experiment [1] was determined as 3.29 ± 0.064 µM. In addition, at aldose reductase (ALR2) [2], the “selectivity of inhibition” value was “non-selective inhibitions” and the IC50 worked out at 7.63 ± 0.061 µM.
For the molecule `O=c1oc2ccccc2cc1COc1ccccc1C=NNc1ccc(Cl)c(Cl)c1` [Compound 21, 3-((2′-((2-(3′′,4′′-Dichlorophenyl)hydrazineylidene)methyl)phenoxy)methyl)-2H-chromen-2-one], in experiment [1], the IC50 turned out to be 11.23 ± 0.065 µM. Also, on aldose reductase (ALR2) [2], the “selectivity of inhibition” value is “non-selective inhibitions” and the IC50 is 4.07 ± 0.083 µM.
As to `O=c1oc2ccccc2cc1COc1ccccc1C=NNc1ccc([N+](=O)[O-])cc1[N+](=O)[O-]` [Compound 22, 3-((2′-((2-(2′′,4′′-Dinitrophenyl)hydrazineylidene)methyl)phenoxy)methyl)-2H-chromen-2-one], the inhibition at 100 µM in experiment [1] (read-out: % Inhibition ALR1, test compounds tested at 100 µM) is less than 50%; at aldose reductase (ALR2) [2] (read-out: % Inhibition ALR2, test compounds tested at 100 µM), less than 50%.
`CCCC(CCC)C(=O)O` [Valproic acid, reference compound]: the IC50 in experiment [1] is 57.4 ± 0.89 µM.
On to `C/C(=N\NC(=S)Nc1ccccc1F)c1cc2ccccc2oc1=O` [XV], for which the “selectivity relative to ALR1 enzyme” value in the experiment with aldose reductase (ALR2) [3] is “high selectivity”. Also, the IC50 at aldose reductase (ALR2) [3] (coumarin-tethered thiosemicarbazones, read-out: IC50 ALR2 / aldose reductase inhibition) is 2.07 µM.
